Measured values: PubChem BioAssay (NCI)
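Values below derive from 48-hour exposures of cells grown in 96-well plates, with endpoints linearly interpolated between the two concentrations bracketing the appropriate inhibition level. TGI: total growth inhibition.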

Tests used:
Test in all cases: DTP human tumour cell line panel, 48 h
NCI/ADR-RES ovarian = system: NCI/ADR-RES ovarian
EKVX NSCLC = system: EKVX NSCLC
SNB-78 CNS = system: SNB-78 CNS
M19-MEL melanoma = system: M19-MEL melanoma
RXF-631 renal = system: RXF-631 renal
XF 498 CNS = system: XF 498 CNS
DMS 273 small cell lung = system: DMS 273 small cell lung
LXFL 529 NSCLC = system: LXFL 529 NSCLC
DMS 114 small cell lung = system: DMS 114 small cell lung
DLD-1 colon = system: DLD-1 colon
KM20L2 colon = system: KM20L2 colon
HOP-18 NSCLC = system: HOP-18 NSCLC

NS(=O)(=O)c1nnc(NC(=O)c2cccc([N+](=O)[O-])c2)s1
TGI (NCI/ADR-RES ovarian): > 100 µM | TGI (EKVX NSCLC): > 100 µM

CC(C)[Si]1(C(C)C)OCC2OC(n3c(C(=O)c4ccccc4)cc(=O)[nH]c3=O)CC2O[Si](C(C)C)(C(C)C)O1 (centres undefined)
TGI (NCI/ADR-RES ovarian): 26.8 µM | TGI (EKVX NSCLC): 14.6 µM

COc1cc(C(C[N+](=O)[O-])SC(C)=O)ccc1OCc1ccccc1 (centres undefined)
TGI (NCI/ADR-RES ovarian): > 38.3 µM | TGI (EKVX NSCLC): 37.9 µM

CC(C)N(C(=O)C12C3C4C1C1C2C3C41I)C(C)C (centres undefined)
TGI (SNB-78 CNS): > 100 µM | TGI (M19-MEL melanoma): > 100 µM | TGI (RXF-631 renal): > 100 µM | TGI (XF 498 CNS): > 100 µM | TGI (DMS 273 small cell lung): > 100 µM | TGI (LXFL 529 NSCLC): > 100 µM | TGI (DMS 114 small cell lung): > 100 µM | TGI (EKVX NSCLC): > 100 µM

Cc1nc(-n2nc(-c3ccccc3)cc2-c2ccccc2)sc1C(=O)/C=C/c1ccc(Cl)c(Cl)c1
TGI (SNB-78 CNS): 73.6 µM | TGI (M19-MEL melanoma): > 100 µM | TGI (RXF-631 renal): > 100 µM | TGI (DLD-1 colon): 48.2 µM | TGI (XF 498 CNS): 30.8 µM | TGI (DMS 273 small cell lung): > 100 µM | TGI (LXFL 529 NSCLC): 32 µM | TGI (DMS 114 small cell lung): > 100 µM | TGI (KM20L2 colon): 70.3 µM | TGI (EKVX NSCLC): > 100 µM

NC(=O)C(=CNC(=S)Nc1ccc(S(=O)(=O)Nc2ccccn2)cc1)C(N)=O
TGI (NCI/ADR-RES ovarian): > 100 µM | TGI (EKVX NSCLC): > 100 µM

CSc1nn(C)cc2nc(C)nc1-2
TGI (NCI/ADR-RES ovarian): > 100 µM | TGI (EKVX NSCLC): > 100 µM

COC1CC(C)([N+](=O)[O-])C(O)C(C)O1 (centres undefined)
TGI (NCI/ADR-RES ovarian): > 100 µM | TGI (EKVX NSCLC): > 100 µM

N#C/C(=C\c1cc(O)ccc1O)C(N)=O
TGI (SNB-78 CNS): > 100 µM | TGI (M19-MEL melanoma): > 100 µM | TGI (RXF-631 renal): > 100 µM | TGI (DLD-1 colon): > 100 µM | TGI (XF 498 CNS): > 100 µM | TGI (DMS 273 small cell lung): > 100 µM | TGI (LXFL 529 NSCLC): > 100 µM | TGI (DMS 114 small cell lung): 70.9 µM | TGI (KM20L2 colon): > 100 µM | TGI (EKVX NSCLC): > 100 µM

CC(C)CC1c2[nH]c3ccccc3c2C[C@H]2C(=O)NC(CCCCNC(=O)OC(C)(C)C)C(=O)N12 (some centres undefined)
TGI (NCI/ADR-RES ovarian): > 100 µM | TGI (EKVX NSCLC): > 100 µM

CCc1[nH]c(=O)c2oc3cc4ccccc4cc3c2c1C(=O)O
TGI (NCI/ADR-RES ovarian): > 10 µM | TGI (EKVX NSCLC): > 10 µM

C[C@@H]1OC2(O)[C@H]3CCCN3S(=O)(=O)CCN2C1=O (some centres undefined)
TGI (SNB-78 CNS): > 100 µM | TGI (M19-MEL melanoma): > 100 µM | TGI (RXF-631 renal): > 100 µM | TGI (DLD-1 colon): > 100 µM | TGI (LXFL 529 NSCLC): > 100 µM | TGI (KM20L2 colon): > 100 µM | TGI (HOP-18 NSCLC): > 100 µM | TGI (EKVX NSCLC): > 100 µM

Nc1ncnc2c1ncn2-c1ccc([N+](=O)[O-])cn1
TGI (NCI/ADR-RES ovarian): > 100 µM

COC(=O)n1c(C)c(C=O)c2ccc(OC)cc21
TGI (NCI/ADR-RES ovarian): > 100 µM | TGI (EKVX NSCLC): > 100 µM

O=C1C2Cc3c(n(C(=O)c4ccccc4)c4ccccc34)CC2C(=O)N1c1ccc(Nc2ccc(N3C(=O)C4Cc5c(n(C(=O)c6ccccc6)c6ccccc56)CC4C3=O)cc2)cc1 (centres undefined)
TGI (NCI/ADR-RES ovarian): > 100 µM | TGI (EKVX NSCLC): > 100 µM

C=C1C(=O)O[C@H]2C/C(C)=C/CC[C@]3(C)CCC[C@](C)(CC[C@@H]12)O3
TGI (NCI/ADR-RES ovarian): 15.8 µM | TGI (EKVX NSCLC): 22.7 µM

COc1cc(C(c2cccc3ccccc23)N2C(=O)CCC2C(=O)O)cc(OC)c1OC (centres undefined)
TGI (NCI/ADR-RES ovarian): > 100 µM | TGI (EKVX NSCLC): > 100 µM

CCCCC(/C=C\COC1CCCCO1)=C/C(=O)OCC (centres undefined)
TGI (NCI/ADR-RES ovarian): > 100 µM | TGI (EKVX NSCLC): > 100 µM

Cc1ccc(NC(=O)CSc2nnc(Cc3ccccc3)o2)cc1
TGI (SNB-78 CNS): > 100 µM | TGI (M19-MEL melanoma): > 100 µM | TGI (DLD-1 colon): > 100 µM | TGI (DMS 273 small cell lung): > 100 µM | TGI (LXFL 529 NSCLC): > 100 µM | TGI (DMS 114 small cell lung): > 100 µM | TGI (KM20L2 colon): > 100 µM | TGI (HOP-18 NSCLC): > 100 µM | TGI (EKVX NSCLC): > 100 µM

[N-]=[N+]=Nc1ccc2c(c1)Sc1ccccc1N2CCCCN1CCN(Cc2ccc(C(=O)c3ccc(CSCC(N)C(=O)O)cc3)cc2)CC1 (centres undefined)
TGI (EKVX NSCLC): > 100 µM

O/C(=C\c1nc2ccccc2nc1/C=C(\O)c1ccc(F)cc1)c1ccc(F)cc1
TGI (NCI/ADR-RES ovarian): > 100 µM | TGI (EKVX NSCLC): > 100 µM

Cc1cc(S(=O)(=O)NC2=NCCN2Cc2ccccc2)c(S)cc1Cl
TGI (NCI/ADR-RES ovarian): > 100 µM | TGI (EKVX NSCLC): > 100 µM

CC(=O)OCC1OC(n2c(N)c(C#N)c(C)c(C#N)c2=S)C(OC(C)=O)C(OC(C)=O)C1OC(C)=O (centres undefined)
TGI (NCI/ADR-RES ovarian): > 100 µM | TGI (EKVX NSCLC): > 100 µM

C[C@@]1(Cc2ccccc2)C(=O)N2[C@@H](CO)C(c3ccccc3)O[C@]2(C)c2ccccc21 (some centres undefined)
TGI (SNB-78 CNS): > 100 µM | TGI (M19-MEL melanoma): > 100 µM | TGI (DLD-1 colon): > 100 µM | TGI (DMS 273 small cell lung): > 100 µM | TGI (LXFL 529 NSCLC): > 100 µM | TGI (DMS 114 small cell lung): > 100 µM | TGI (KM20L2 colon): > 100 µM | TGI (EKVX NSCLC): > 100 µM

COc1cc(C2c3cc4c(cc3OC(NCCc3ccccc3)C2C)OCO4)cc(OC)c1OC (centres undefined)
TGI (NCI/ADR-RES ovarian): > 22.3 µM | TGI (EKVX NSCLC): > 94 µM

Cc1cc(S(=O)(=O)Nc2n[nH]c(Nc3ccc4ccccc4c3)n2)c(S)cc1Cl
TGI (NCI/ADR-RES ovarian): > 100 µM | TGI (EKVX NSCLC): > 100 µM

CCCCNC(=NCc1ccccc1)NC#N
TGI (SNB-78 CNS): > 100 µM | TGI (M19-MEL melanoma): > 100 µM | TGI (DLD-1 colon): > 100 µM | TGI (XF 498 CNS): > 100 µM | TGI (DMS 273 small cell lung): > 100 µM | TGI (LXFL 529 NSCLC): > 100 µM | TGI (KM20L2 colon): > 100 µM | TGI (EKVX NSCLC): > 100 µM

O=[N+]([O-])c1ccc(C2=NOC(c3ccc(Cl)cc3)N2C23CC4CC(CC(C4)C2)C3)cc1 (centres undefined)
TGI (NCI/ADR-RES ovarian): > 100 µM | TGI (EKVX NSCLC): > 100 µM

CN(C)/C=N\c1nncc2[nH]cnc12
TGI (NCI/ADR-RES ovarian): > 100 µM | TGI (EKVX NSCLC): > 100 µM

CCOC(=O)c1nc2ccccc2nc1Nc1ccc(OC)cc1
TGI (NCI/ADR-RES ovarian): > 100 µM | TGI (EKVX NSCLC): > 100 µM

CCOC(=O)CCC(NC(=O)C(N)c1ccc([N+](=O)[O-])cc1)C(=O)NC(CCC(=O)OCC)C(=O)OCC (centres undefined)
TGI (EKVX NSCLC): > 100 µM

O=C(N/N=C(/c1nc2ccc([N+](=O)[O-])cc2[nH]c1=O)C(O)c1ccc([N+](=O)[O-])cc1)c1ccncc1 (centres undefined)
TGI (SNB-78 CNS): > 100 µM | TGI (M19-MEL melanoma): > 100 µM | TGI (DLD-1 colon): > 100 µM | TGI (XF 498 CNS): > 100 µM | TGI (LXFL 529 NSCLC): > 100 µM | TGI (DMS 114 small cell lung): > 100 µM | TGI (HOP-18 NSCLC): > 100 µM | TGI (EKVX NSCLC): > 100 µM

CCOC(=O)c1cnc2c(ccc3[nH]cccc32)c1=O
TGI (SNB-78 CNS): > 100 µM | TGI (M19-MEL melanoma): > 100 µM | TGI (DLD-1 colon): > 100 µM | TGI (DMS 273 small cell lung): > 100 µM | TGI (LXFL 529 NSCLC): > 100 µM | TGI (DMS 114 small cell lung): > 100 µM | TGI (KM20L2 colon): > 100 µM | TGI (HOP-18 NSCLC): > 100 µM | TGI (EKVX NSCLC): > 100 µM

CCOC(=O)c1nc2ccccc2nc1Oc1ccc(C#N)cc1
TGI (NCI/ADR-RES ovarian): > 100 µM | TGI (EKVX NSCLC): > 100 µM

O=C(Cc1ccc([N+](=O)[O-])c([N+](=O)[O-])c1CC(=O)C(=O)Nc1cc(Cl)ccc1Cl)C(=O)Nc1cc(Cl)ccc1Cl
TGI (SNB-78 CNS): > 100 µM | TGI (M19-MEL melanoma): > 100 µM | TGI (DLD-1 colon): > 100 µM | TGI (DMS 273 small cell lung): 87.3 µM | TGI (LXFL 529 NSCLC): > 100 µM | TGI (DMS 114 small cell lung): > 100 µM | TGI (KM20L2 colon): > 100 µM | TGI (HOP-18 NSCLC): > 100 µM | TGI (EKVX NSCLC): > 100 µM
